Counter-ions that a name gives are not always drawn.
Target: T1, GPR119 G protein-coupled receptor (Homo sapiens, UniProt Q8TDV5)
T1 construct: expressed in transfected cells; host or cells: Flp-In-T-REx 293 cells, tetracycline induced
T1 sequence (Q8TDV5 1-335): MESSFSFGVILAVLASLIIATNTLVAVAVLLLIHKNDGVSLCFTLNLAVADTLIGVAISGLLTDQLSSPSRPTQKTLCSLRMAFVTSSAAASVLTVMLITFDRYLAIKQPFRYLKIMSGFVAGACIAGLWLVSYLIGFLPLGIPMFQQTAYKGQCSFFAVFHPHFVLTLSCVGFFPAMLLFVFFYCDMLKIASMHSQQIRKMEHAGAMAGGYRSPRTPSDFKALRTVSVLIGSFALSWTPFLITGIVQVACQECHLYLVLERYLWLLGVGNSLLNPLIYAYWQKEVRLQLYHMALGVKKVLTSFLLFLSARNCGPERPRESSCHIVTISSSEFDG
Assay: Human Tet-Inducible cAMP Assay (hEC50, Table 1)
Format: cell-based
Design: IA: scale not given here
Conditions: for IA: IA not defined
Protocol: Human Tet-Inducible cAMP Assay
Cell lines using the Flp-In-T-REx 293 tetracycline inducible gene expression system are cultured in culture medium comprising the following components: DMEM#11965, 10% FBS, 2 mM L-glutamine, 200 ug/ml Hygromycin B, and 15 ug/ml blasticidin.
For cAMP assays, cells are plated on 96 well plates (e.g., BD Falcon: REF 353948, black side, clear bottom, TC surface) at a density of about 4.5×10^4 cells per well in growth medium containing 1.0 ug/ml tetracycline (1.0 mg/ml stock). The cells are then incubated for 48 hours at 37° C.
Following the incubation, the growth medium is removed from the wells and the wells rinsed (once) with the assay buffer included in the Hit Hunter cAMP kit (100 μl/well). Following the wash, 20 μl of assay buffer is added to each well, followed by addition of 10 μl of a 3× concentration compound working solution. The solution is then mixed. The final concentration range of compound is from about 10^−5M to about 10^−11M. The reagents are then incubated at 37° C. at 5% CO2 for 1 hour.
The manufacturer's protocol may be followed for cAMP determination. The Hit Hunter cAMP kit protocol is outlined for the HIT-T15 cAMP assays described above.

Which results are given for `CCC(C)OC(=O)N1CCC(N2CCOc3c(Nc4ccc(S(C)(=O)=O)cc4F)ncnc32)CC1` (racemic) [Example 146, (±)-sec-Butyl 4-(4-(2-fluoro-4-(methylsulfonyl)phenylamino)-6H-pyrimido[5,4-b][1,4]oxazin-8(7 H)-yl)piperidine-1-carboxylate, TFA salt]?
EC50: 8.52 nM; IA: 0.88

What does the source list for `CC(C)(C)OC(=O)N1CCC(N2CCOc3c(Nc4ccc(S(C)(=O)=O)cc4Cl)ncnc32)CC1` [Example 7, tert-Butyl 4-(4-(2-chloro-4-(methylsulfonyl)phenylamino)-6H-pyrimido[5,4-b][1,4]oxazin-8(7H)-yl)piperidine-1-carboxylate]?
EC50: 2.78 nM; IA: 0.81

For `COc1ccc(Nc2ncnc3c2OCCN3C2CCN(C(=O)OC(C)C)CC2)c(F)c1` [Example 15, iso-Propyl 4-(4-(2-fluoro-4-methoxyphenylamino)-6H-pyrimido[5,4-b][1,4]oxazin-8(7H)-yl)piperidine-1-carboxylate], which EC50 is on record?
The EC50 was 188 nM.

And the IA?
Its IA is 0.48.

Which EC50 does the source give for `CS(=O)(=O)c1ccc(Nc2ncnc3c2OCCN3C2CCN(c3nc4ccccc4s3)CC2)c(F)c1` [Example 18, 8-(1-(Benzo[d]thiazol-2-yl)piperidin-4-yl)-N-(2-fluoro-4-(methylsulfonyl)phenyl)-7,8-dihydro-6H-pyrimido[5,4-b][1,4]oxazin-4-amine] here?
Its EC50 is 198 nM.

What about the IA of the same molecule?
The IA was 0.46.

For `Cc1ncccc1Oc1ncnc2c1OCCN2C1CCN(C(=O)OC(C)C)CC1` [Example 25, iso-Propyl 4-(4-(2-methylpyridin-3-yloxy)-6H-pyrimido[5,4-b][1,4]oxazin-8(7H)-yl)piperidine-1-carboxylate], which EC50 is on record?
The EC50 was 4520 nM.

What about the IA of the same molecule?
Its IA is 0.27.

`CC(C)(C)OC(=O)N1CCC(N2C(=O)COc3c(Nc4ccc(S(C)(=O)=O)cc4F)ncnc32)CC1` [Example 26, tert-Butyl 4-(4-(2-fluoro-4-(methylsulfonyl)phenylamino)-7-oxo-6H-pyrimido[5,4-b][1,4]oxazin-8(7H)-yl)piperidine-1-carboxylate] was tested. Which EC50 did it give?
Its EC50 is 8.06 nM.

And the IA?
Its IA is 0.51.

With `COC(=O)c1ccc(Nc2ncnc3c2OCCN3C2CCN(C(=O)OC(C)(C)C)CC2)c(Cl)c1` [Example 45, tert-Butyl 4-(4-(2-chloro-4-(methoxycarbonyl)phenylamino)-6H-pyrimido[5,4-b][1,4]oxazin-8(7H)-yl)piperidine-1-carboxylate] as the molecule, how does the EC50 read?
The EC50 was 158 nM.

And the IA?
The IA was 0.63.

`CC(C)(C)OC(=O)N1CCC(N2CCOc3c(Nc4ccc(C(N)=O)cc4Cl)ncnc32)CC1` [Example 47, tert-Butyl 4-(4-(4-carbamoyl-2-chlorophenylamino)-6H-pyrimido[5,4-b][1,4]oxazin-8(7H)-yl)piperidine-1-carboxylate] was tested. Which EC50 did it give?
The EC50 was 163 nM.

What about the IA of the same molecule?
The IA was 0.78.

Which EC50 does the source give for `CC(C)OC(=O)N1CCC(N2CCOc3c(Nc4ccc(C(N)=O)cc4Cl)ncnc32)CC1` [Example 49, iso-Propyl 4-(4-(4-carbamoyl-2-chlorophenylamino)-6H-pyrimido[5,4-b][1,4]oxazin-8(7H)-yl)piperidine-1-carboxylate] here?
The EC50 was 196 nM.

What about the IA of the same molecule?
The IA was 0.67.

`CC(C)(C)OC(=O)N1CCC(N2CCOc3c(Nc4c(Cl)cncc4Cl)ncnc32)CC1` [Example 55, tert-Butyl 4-(4-(3,5-dichloropyridin-4-ylamino)-6H-pyrimido[5,4-b][1,4]oxazin-8(7H)-yl)piperidine-1-carboxylate] was tested. Which EC50 did it give?
The EC50 was 11.1 nM.

What about the IA of the same molecule?
The IA was 0.72.

`Cc1ccc(Nc2ncnc3c2OCC(=O)N3C2CCN(C(=O)OC(C)(C)C)CC2)cn1` [Example 69, tert-Butyl 4-(4-(6-methylpyridin-3-ylamino)-7-oxo-6H-pyrimido[5,4-b][1,4]oxazin-8(7H)-yl)piperidine-1-carboxylate] was tested. Which EC50 did it give?
Its EC50 is 4310 nM.

What about the IA of the same molecule?
Its IA is 0.35.

Which EC50 does the source give for `Cc1ccc(Nc2ncnc3c2OCC(=O)N3C2CCN(C(=O)OC(C)C)CC2)cn1` [Example 72, iso-Propyl 4-(4-(6-methylpyridin-3-ylamino)-7-oxo-6H-pyrimido[5,4-b][1,4]oxazin-8(7H)-yl)piperidine-1-carboxylate] here?
Its EC50 is 8580 nM.

What about the IA of the same molecule?
Its IA is 0.34.

How did the EC50 turn out when `Cc1ncccc1Nc1cccc2c1OCCN2C1CCN(C(=O)OC(C)(C)C)CC1` [Example 76, tert-Butyl 4-(8-(2-methylpyridin-3-ylamino)-2H-benzo[b][1,4]oxazin-4 (3H)-yl)piperidine-1-carboxylate] was run?
The EC50 was 3390 nM.

What about the IA of the same molecule?
The IA was 0.38.

`CC(C)(C)OC(=O)N1CCC(N2CCCOc3c(Nc4c(Cl)cncc4Cl)ncnc32)CC1` [Example 89, tert-Butyl 4-(4-(3,5-dichloropyridin-4-ylamino)-7,8-dihydropyrimido[5,4-b][1,4]oxazepin-9(6H)-yl)piperidine-1-carboxylate] was tested. Which EC50 did it give?
The EC50 was 10.3 nM.

What about the IA of the same molecule?
The IA was 0.65.

Which EC50 does the source give for `CC(C)(C)OC(=O)N1CCC(N2CCCOc3c(Nc4ccncc4)ncnc32)CC1` [Example 100, tert-Butyl 4-(4-(pyridin-4-ylamino)-7,8-dihydropyrimido[5,4-b][1,4]oxazepin-9(6H)-yl)piperidine-1-carboxylate] here?
Its EC50 is 3450 nM.

What about the IA of the same molecule?
Its IA is 0.53.

For `CC(C)OC(=O)N1CCC(N2C(=O)CCc3c(Nc4ccc(S(C)(=O)=O)cc4F)ncnc32)CC1` [Example 118, Isopropyl 4-(4-(2-fluoro-4-(methylsulfonyl)phenylamino)-7-oxo-6,7-dihydropyrido[2,3-d]pyrimidin-8 (5H)-yl)piperidine-1-carboxylate], which EC50 is on record?
The EC50 was 179 nM.

What about the IA of the same molecule?
The IA was 0.63.

What does the source list for `CC(C)OC(=O)N1CCC(N2CCOc3c(Nc4ccncc4Cl)ncnc32)CC1` [Example 120, Isopropyl 4-(4-(3-chloropyridin-4-ylamino)-6H-pyrimido[5,4-b][1,4]oxazin-8(7H)-yl)piperidine-1-carboxylate]?
EC50: 181 nM; IA: 0.45

What does the source list for `CC(C)OC(=O)N1CCC(N2C(=O)COc3c(Nc4cccnc4Cl)ncnc32)CC1` [Example 127, Isopropyl 4-(4-(2-chloropyridin-3-ylamino)-7-oxo-6H-pyrimido[5,4-b][1,4]oxazin-8(7H)-yl)piperidine-1-carboxylate]?
EC50: 6180 nM; IA: 0.52

What does the source list for `COc1ccc(Nc2ncnc3c2OCCN3C2CCN(C(=O)OC(C)C)CC2)cc1` [Example 128, Isopropyl 4-(4-(4-methoxyphenylamino)-6H-pyrimido[5,4-b][1,4]oxazin-8(7H)-yl)piperidine-1-carboxylate]?
EC50: 3590 nM; IA: 0.7

`CC(C)OC(=O)N1CCC(N2CCOc3c(Nc4ccc5c(c4)OCO5)ncnc32)CC1` [Example 132, Isopropyl 4-(4-(benzo[d][1,3]dioxol-5-ylamino)-6H-pyrimido[5,4-b][1,4]oxazin-8(7H)-yl)piperidine-1-carboxylate] was tested. Which EC50 did it give?
The EC50 was 3400 nM.

And the IA?
The IA was 0.37.

Which EC50 does the source give for `Cc1cc(C#N)ccc1Nc1ncnc2c1OCCN2C1CCN(C(=O)OC(C)C)CC1` [Example 134, Isopropyl 4-(4-(4-cyano-2-methylphenylamino)-6H-pyrimido[5,4-b][1,4]oxazin-8(7H)-yl)piperidine-1-carboxylate] here?
Its EC50 is 163 nM.

And the IA?
The IA was 0.59.

How did the EC50 turn out when `CC(C)(OC(=O)N1CCC(N2CCOc3c(Nc4ccc(S(C)(=O)=O)cc4F)ncnc32)CC1)C(F)(F)F` [Example 143] was run?
Its EC50 is 9.74 nM.

And the IA?
Its IA is 0.41.

Which EC50 does the source give for `CS(=O)(=O)c1ccc(Nc2ncnc3c2OCCN3C2CCN(C(=O)OCC(F)(F)F)CC2)c(F)c1` [Example 145, 2,2,2-Trifluoroethyl 4-(4-(2-fluoro-4-(methylsulfonyl)phenylamino)-6H-pyrimido[5,4-b][1,4]oxazin-8(7H)-yl)piperidine-1-carboxylate, TFA salt] here?
The EC50 was 11.4 nM.

What about the IA of the same molecule?
Its IA is 0.87.

Which EC50 does the source give for `CC(C)(C)OC(=O)N1CCC(N2CCOc3c(Nc4ccc(-n5ccnc5)cc4Cl)ncnc32)CC1` [Example 154, tert-Butyl 4-(4-(2-chloro-4-(1H-imidazol-1-yl)phenylamino)-6H-pyrimido[5,4-b][1,4]oxazin-8(7H)-yl)piperidine-1-carboxylate] here?
The EC50 was 12.9 nM.

And the IA?
Its IA is 0.65.
